{
  "source": "patent US9920073B2",
  "about": "“Compositions useful for inhibiting HIV-1 infection and methods using same” (Drexel University, priority 2013, dated 2018)",
  "key": {"[1]": {"test_system": "attachment of HIV-1HxBc2 to U87-CD+-CXCR4+ cells", "assay": "Temperature shift assay (viral attachment)", "type": "cell-based", "procedure": "The entry process can be divided into two temperature-dependent stages, with receptor and coreceptor binding occurring over the temperature range 0-37° C., while the fusion process only occurs at temperatures above 25° C. (Frey, et al., 1995, J. Virol. 69:1462-1472). Based upon differential ranges in temperatures at which binding and fusion/entry occur, a novel assay was developed to detect viral attachment in the presence or absence of inhibitors. Recombinant single-round infective HIV-1 virions are incubated with permissive cells at 4° C. for 2 hours to only allow the initial receptor/coreceptor engagement. Unattached virions, and the compound, are then removed by washing the cells with cold media followed by centrifugation at 1200 rpm for 4 min at 4° C. Cells are replenished with fresh media and transferred to 37° C. After 48 hour of incubation, the level of infection is measured by a luciferase activity as in the standard single-round infection assay. […] Conversely, the small molecule CD4-mimetic NBD-556, which is known to disrupt the gp120-CD4 interaction, reduces the level of infection to 40% of vehicle (DMSO) alone (FIG. 11). […] Moreover, this analysis may be extended to encompass viruses that utilize CCR5 for entry."}, "[2]": {"test_system": "amphotropic murine leukemia virus (AMLV)", "assay": "microbe, parasite or virus in culture", "type": "cell-based", "details": "single round infection assay, in words"}, "HIV-1JR-CSF": {"test_system": "HIV-1JR-CSF", "assay": "microbe, parasite or virus in culture", "type": "cell-based"}, "HIV-1HxBc2": {"test_system": "HIV-1HxBc2", "assay": "microbe, parasite or virus in culture", "type": "cell-based"}, "HIV-1 isolate BaL": {"test_system": "HIV-1 isolate BaL", "assay": "microbe, parasite or virus in culture", "type": "cell-based", "details": "Human immunodeficiency virus 1, tropism R5"}, "HIV-1 isolate AC10.0.29": {"test_system": "HIV-1 isolate AC10.0.29", "assay": "microbe, parasite or virus in culture", "type": "cell-based", "details": "Human immunodeficiency virus 1; isolate AC10.0.29, tropism R5"}, "HIV-1 isolate JR-FL": {"test_system": "HIV-1 isolate JR-FL", "assay": "microbe, parasite or virus in culture", "type": "cell-based", "details": "Human immunodeficiency virus 1, tropism R5"}, "[3]": {"test_system": "HIV-1 92UG037 (subtype A)", "assay": "HIV-1 replication assay in primary human PBMCs, isolate 92UG037", "type": "cell-based"}, "[4]": {"test_system": "HIV-1 91US004 (subtype B)", "assay": "HIV-1 replication assay in primary human PBMCs, isolate 91US004", "type": "cell-based"}, "[5]": {"test_system": "HIV-1 98US_MSC5016 (subtype C)", "assay": "HIV-1 replication assay in primary human PBMCs, isolate 98US_MSC5016", "type": "cell-based"}, "[6]": {"test_system": "HIV-1 99UG_A07412M1 (subtype D)", "assay": "HIV-1 replication assay in primary human PBMCs, isolate 99UG_A07412M1", "type": "cell-based"}, "HIV-2 CDC310319": {"test_system": "HIV-2 CDC310319", "assay": "Replication assay in primary human PBMCs, HIV-2 isolate", "type": "cell-based"}, "in vitro": {"assay": "in vitro", "type": "cell-based", "details": "human", "procedure": "Moreover, this assay was performed using healthy, primary cells to gain further insight into potential toxicities of the compound towards natural target cells. Additionally, as a key issue in the development of novel HIV drugs is their ability to inhibit the replication of genetically diverse isolates (especially isolates from the most globally prevalent subtypes A, B, C, and D), it was chosen to assess the potency of SC26 to inhibit the replication of isolates from subtypes A, B, C, and D in primary human peripheral blood mononuclear cells (PBMCs). Concomitantly, toxicity of SC26 to the PBMCs was assessed using an MTT assay. As can be observed from the IC50 values, the potency of SC26 against different isolates ranges quite dramatically, most likely reflecting differences in the binding site between subtypes."}, "[7]": {"test_system": "HIV-1 94US_3393IN (subtype B)", "assay": "HIV-1 replication assay in primary human PBMCs, isolate 94US_3393IN"}, "[8]": {"details": "Human immunodeficiency virus 1, read-out: IC50 JR-CSF"}, "[9]": {"details": "Human immunodeficiency virus 1, read-out: IC50 HxBc2"}, "[10]": {"details": "Human immunodeficiency virus 1, PBMC, human PBMCs"}},
  "note": "Read-outs that look alike come from different tables or passages of the source.",
  "data": [
    {"compound": "CC1(C)CC(NC(=O)C(=O)Nc2ccc(Cl)cc2)CC(C)(C)N1", "note": "[NBD-556, N1-(4-chlorophenyl)-N2-(2,2,6,6-tetramethyl-4-piperidinyl)-ethanediamide, reference compound]", "values": [
      {"measurement": "level of infection relative to vehicle (DMSO) alone", "setting": "[1]; virions with cells at 4° C. for 2 hours, wash, 37° C. 48 hour, FIG. 11", "result": 40, "unit": "%"}
    ]},
    {"compound": "COc1cnc(Cl)c2[nH]cc(C(=O)C(=O)N3CC4CN(C(=O)c5ccccc5)CC4C3)c12", "note": "(stereo not shown) [SC07, 1-(5-benzoylhexahydropyrrolo[3,4-c]pyrrol-2(1H)-yl)-2-(7-chloro-4-methoxy-1H-pyrrolo[2,3-c]pyridin-3-yl)ethane-1,2-dione]", "values": [
      {"measurement": "specificity to HIV-1 (inhibition of AMLV-pseudotyped HIV-1)", "setting": "[2]", "result": "no inhibition of AMLV-pseudotyped HIV-1"},
      {"measurement": "IC50", "setting": "HIV-1JR-CSF; [8]", "result": "980 ± 60", "unit": "nM"},
      {"measurement": "IC50", "setting": "HIV-1HxBc2; [9]", "result": "16800 ± 6200", "unit": "nM"}
    ]},
    {"compound": "COc1ncc(OC)c2c(C(=O)C(=O)N3CC4CN(C(=O)c5ccccc5)CC4C3)c[nH]c12", "note": "(stereo not shown) [SC08, 1-(5-benzoylhexahydropyrrolo[3,4-c]pyrrol-2(1H)-yl)-2-(4,7-dimethoxy-1H-pyrrolo[2,3-c]pyridin-3-yl)ethane-1,2-dione]", "values": [
      {"measurement": "specificity to HIV-1 (inhibition of AMLV-pseudotyped HIV-1)", "setting": "[2]", "result": "no inhibition of AMLV-pseudotyped HIV-1"},
      {"measurement": "IC50", "setting": "HIV-1JR-CSF; read-out: IC50 JR-CSF, single round infection assay", "result": "90 ± 10", "unit": "nM"},
      {"measurement": "IC50", "setting": "HIV-1HxBc2; [9]", "result": "190 ± 80", "unit": "nM"}
    ]},
    {"compound": "COc1cnc(-n2cnc(C)n2)c2[nH]cc(C(=O)C(=O)N3CC4C=NN(c5ccccc5)C4C3)c12", "note": "(stereo not shown) [SC12, 1-(4-methoxy-7-(3-methyl-1H-1,2,4-triazol-1-yl)-1H-pyrrolo[2,3-c]pyridin-3-yl)-2-(1-phenyl-3a,4,6,6a-tetrahydropyrrolo[3,4-c]pyrazol-5(1H)-yl)ethane-1,2-dione]", "values": [
      {"measurement": "IC50", "setting": "HIV-1JR-CSF; Human immunodeficiency virus 1", "result": "13 ± 3", "unit": "nM"},
      {"measurement": "IC50", "setting": "HIV-1JR-CSF; [8]", "result": "8 ± 2", "unit": "nM"},
      {"measurement": "IC50", "setting": "HIV-1HxBc2; Human immunodeficiency virus 1", "result": "24 ± 3", "unit": "nM"},
      {"measurement": "IC50", "setting": "HIV-1HxBc2; [9]", "result": "80 ± 20", "unit": "nM"},
      {"measurement": "IC50", "setting": "HIV-1 isolate BaL", "result": "3.5 ± 0.3", "unit": "µM"},
      {"measurement": "IC50", "setting": "HIV-1 isolate AC10.0.29", "result": "488 ± 47", "unit": "nM"},
      {"measurement": "IC50", "setting": "HIV-1 isolate JR-FL", "result": "106 ± 52", "unit": "nM"},
      {"measurement": "block of viral attachment", "setting": "[1]; temperature shift assay, in words", "result": "does not appear to block viral attachment"}
    ]},
    {"compound": "COc1cnc(-n2cnc(C)n2)c2[nH]cc(C(=O)C(=O)NCC3CN(C(=O)c4ccccc4)C3)c12", "note": "[SC14, N-((1-benzoylazetidin-3-yl)methyl)-2-(4-methoxy-7-(3-methyl-1H-1,2,4-triazol-1-yl)-1H-pyrrolo[2,3-c]pyridin-3-yl)-2-oxoacetamide]", "values": [
      {"measurement": "IC50", "setting": "HIV-1JR-CSF; [8]", "result": "2500 ± 400", "unit": "nM"},
      {"measurement": "IC50", "setting": "HIV-1HxBc2; [9]", "result": "1200 ± 400", "unit": "nM"}
    ]},
    {"compound": "COc1cnc(-n2cnc(C)n2)c2[nH]cc(C(=O)C(=O)N3CC(CCC(=O)c4ccccc4)C3)c12", "note": "[SC15, 1-(4-methoxy-7-(3-methyl-1H-1,2,4-triazol-1-yl)-1H-pyrrolo[2,3-c]pyridin-3-yl)-2-(3-(3-oxo-3-phenylpropyl)azetidin-1-yl)ethane-1,2-dione]", "values": [
      {"measurement": "IC50", "setting": "HIV-1JR-CSF; [8]", "result": "2 ± 0.1", "unit": "nM"},
      {"measurement": "IC50", "setting": "HIV-1HxBc2; [9]", "result": "3 ± 0.5", "unit": "nM"}
    ]},
    {"compound": "COc1cnc(-n2cnc(C)n2)c2[nH]cc(C(=O)C(=O)N3CC(CSC(=O)c4ccccc4)C3)c12", "note": "[SC16, S-((1-(2-(4-methoxy-7-(3-methyl-1H-1,2,4-triazol-1-yl)-1H-pyrrolo[2,3-c]pyridin-3-yl)-2-oxoacetyl)azetidin-3-yl)methyl) benzothioate]", "values": [
      {"measurement": "IC50", "setting": "HIV-1JR-CSF; [8]", "result": "100 ± 20", "unit": "nM"},
      {"measurement": "IC50", "setting": "HIV-1HxBc2; [9]", "result": "150 ± 30", "unit": "nM"}
    ]},
    {"compound": "COc1cnc(-n2cnc(C)n2)c2[nH]cc(C(=O)C(=O)N(C)C3CN(C(=O)c4ccccc4)C3)c12", "note": "[SC18, N-(1-benzoylazetidin-3-yl)-2-(4-methoxy-7-(3-methyl-1H-1,2,4-triazol-1-yl)-1H-pyrrolo[2,3-c]pyridin-3-yl)-N-methyl-2-oxoacetamide]", "values": [
      {"measurement": "IC50", "setting": "HIV-1JR-CSF; [8]", "result": "1300 ± 200", "unit": "nM"},
      {"measurement": "IC50", "setting": "HIV-1HxBc2; [9]", "result": "102000 ± 160000", "unit": "nM"}
    ]},
    {"compound": "COc1cnc(-n2cnc(C)n2)c2[nH]cc(C(=O)C(=O)N3CC4CN(C(=O)C5=CCCCC5)CC4C3)c12", "note": "(stereo not shown) [SC26, 1-(5-(cyclohex-1-ene-1-carbonyl)hexahydropyrrolo[3,4-c]pyrrol-2(1H)-yl)-2-(4-methoxy-7-(3-methyl-1H-1,2,4-triazol-1-yl)-1H-pyrrolo[2,3-c]pyridin-3-yl)ethane-1,2-dione]", "values": [
      {"measurement": "IC50", "setting": "HIV-1JR-CSF; [8]", "result": "2 ± 0.1", "unit": "nM"},
      {"measurement": "IC50", "setting": "HIV-1HxBc2; Human immunodeficiency virus 1", "result": "0.6 ± 0.01", "unit": "nM"},
      {"measurement": "IC50", "setting": "HIV-1HxBc2; [9]", "result": "0.6 ± 0.08", "unit": "nM"},
      {"measurement": "Antiviral index (TC50/IC50)", "setting": "[3]", "result": ">3.97"},
      {"measurement": "IC50", "setting": "[3]; [10]", "result": "25.2 ± 6.9", "unit": "µM"},
      {"measurement": "Antiviral index (TC50/IC50)", "setting": "[4]", "result": ">513"},
      {"measurement": "IC50", "setting": "[4]; [10]", "result": "195 ± 12", "unit": "nM"},
      {"measurement": "Antiviral index (TC50/IC50)", "setting": "[5]", "result": ">25.6"},
      {"measurement": "IC50", "setting": "[5]; [10]", "result": "3.9 ± 0.8", "unit": "µM"},
      {"measurement": "Antiviral index (TC50/IC50)", "setting": "[6]", "result": ">204"},
      {"measurement": "IC50", "setting": "[6]; [10]", "result": "490 ± 60", "unit": "nM"},
      {"measurement": "IC50", "setting": "HIV-2 CDC310319; Human immunodeficiency virus 2, PBMC, HIV-2 CDC310319, human PBMCs", "result": "> 100", "unit": "µM"},
      {"measurement": "effect on the replication of an HIV-2 isolate", "setting": "HIV-2 CDC310319; human PBMCs, in words", "result": "no effect"},
      {"measurement": "CC50 at 7 days", "setting": "in vitro", "result": "> 100", "unit": "µM"},
      {"measurement": "Antiviral index (TC50/IC50)", "setting": "[7]", "result": ">166,666"}
    ]},
    {"compound": "COc1cnc(-n2cnc(C)n2)c2[nH]cc(C(=O)C(=O)N3CC=C(CNC(=O)c4ccccc4)CC3)c12", "note": "[SC45, N-((1-(2-(4-methoxy-7-(3-methyl-1H-1,2,4-triazol-1-yl)-1H-pyrrolo[2,3-c]pyridin-3-yl)-2-oxoacetyl)-1,2,3,6-tetrahydropyridin-4-yl)methyl)benzamide]", "values": [
      {"measurement": "IC50", "setting": "HIV-1JR-CSF; [8]", "result": "150 ± 9", "unit": "nM"},
      {"measurement": "IC50", "setting": "HIV-1HxBc2; [9]", "result": "100 ± 30", "unit": "nM"}
    ]}
  ]
}
